Experimental data published in ChEMBL document CHEMBL4371085, “Novel M4 positive allosteric modulators derived from questioning the role and impact of a presumed intramolecular hydrogen-bonding motif in β-amino carboxamide-harboring ligands” (Bioorg Med Chem Lett, 2019).
pEC50, pIC50: −log10 of the molar value.

What was measured:
[1] = target: T1, Muscarinic acetylcholine receptor M4 (Homo sapiens, UniProt P08173); test: Positive allosteric modulation of Gqi5-fused human M4 AChR assessed as increase in acetylcholine-induced calcium mobilization; assay type: functional
T1 sequence (P08173 whole entry): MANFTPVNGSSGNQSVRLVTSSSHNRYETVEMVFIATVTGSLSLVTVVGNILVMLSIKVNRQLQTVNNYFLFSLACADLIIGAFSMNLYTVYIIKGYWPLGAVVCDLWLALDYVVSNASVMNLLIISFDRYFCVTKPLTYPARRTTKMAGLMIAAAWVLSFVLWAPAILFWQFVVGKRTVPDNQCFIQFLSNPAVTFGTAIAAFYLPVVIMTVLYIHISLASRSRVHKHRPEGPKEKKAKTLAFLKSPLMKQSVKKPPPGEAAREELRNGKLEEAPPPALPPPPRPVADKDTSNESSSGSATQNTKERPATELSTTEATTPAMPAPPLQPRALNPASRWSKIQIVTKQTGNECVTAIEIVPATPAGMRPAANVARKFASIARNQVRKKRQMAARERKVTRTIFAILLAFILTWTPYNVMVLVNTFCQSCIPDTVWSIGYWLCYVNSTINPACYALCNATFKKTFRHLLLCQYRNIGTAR

[2] = target: T2, Muscarinic acetylcholine receptor M4 (Homo sapiens) (UniProt P08173); test: Positive allosteric modulation of Gqi5-fused human M4 AChR assessed as increase in acetylcholine-induced calcium mobilization relative to acetylcholine alone; assay type: functional
T2 sequence (whole entry): T1 sequence (P08173 whole entry)

[3] = Fraction unbound in rat plasma; assay type: ADME, cell-free
[4] = test system: Cytochrome P450; test: Inhibition of CYP450 (unknown origin); assay type: ADME, protein assay; details: human
[5] = target: P-gp (ABCB1) (Homo sapiens, UniProt P08183); test: Substrate activity at human P-gp assessed as efflux ratio; assay type: ADME; details: not told
[6] = Brain to plasma partition coefficient, Kp of the compound in rat; assay type: ADME, cell-free
[7] = target: Cytochrome P450 2C9 (Homo sapiens, UniProt P11712); test: Inhibition of CYP2C9 (unknown origin); assay type: ADME
[8] = target: T3, Cytochrome P450 1A2 (Homo sapiens, UniProt P05177); test: Inhibition of CYP1A2 (unknown origin); assay type: ADME
T3 sequence (P05177 whole entry): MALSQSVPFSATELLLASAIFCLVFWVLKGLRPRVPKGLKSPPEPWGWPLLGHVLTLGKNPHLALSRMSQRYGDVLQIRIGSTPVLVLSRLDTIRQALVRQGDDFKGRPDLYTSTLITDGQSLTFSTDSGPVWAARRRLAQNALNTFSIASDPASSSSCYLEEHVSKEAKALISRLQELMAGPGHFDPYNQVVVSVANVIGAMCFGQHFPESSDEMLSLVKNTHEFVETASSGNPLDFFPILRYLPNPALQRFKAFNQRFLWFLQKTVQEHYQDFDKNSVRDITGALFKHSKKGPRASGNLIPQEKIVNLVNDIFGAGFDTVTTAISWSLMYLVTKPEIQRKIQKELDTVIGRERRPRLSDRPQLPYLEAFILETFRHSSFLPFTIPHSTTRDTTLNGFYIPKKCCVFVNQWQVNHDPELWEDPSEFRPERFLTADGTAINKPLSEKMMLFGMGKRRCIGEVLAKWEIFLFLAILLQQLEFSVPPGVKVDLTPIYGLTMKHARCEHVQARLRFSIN

Sequence of Cytochrome P450 2C9 (P11712 whole entry): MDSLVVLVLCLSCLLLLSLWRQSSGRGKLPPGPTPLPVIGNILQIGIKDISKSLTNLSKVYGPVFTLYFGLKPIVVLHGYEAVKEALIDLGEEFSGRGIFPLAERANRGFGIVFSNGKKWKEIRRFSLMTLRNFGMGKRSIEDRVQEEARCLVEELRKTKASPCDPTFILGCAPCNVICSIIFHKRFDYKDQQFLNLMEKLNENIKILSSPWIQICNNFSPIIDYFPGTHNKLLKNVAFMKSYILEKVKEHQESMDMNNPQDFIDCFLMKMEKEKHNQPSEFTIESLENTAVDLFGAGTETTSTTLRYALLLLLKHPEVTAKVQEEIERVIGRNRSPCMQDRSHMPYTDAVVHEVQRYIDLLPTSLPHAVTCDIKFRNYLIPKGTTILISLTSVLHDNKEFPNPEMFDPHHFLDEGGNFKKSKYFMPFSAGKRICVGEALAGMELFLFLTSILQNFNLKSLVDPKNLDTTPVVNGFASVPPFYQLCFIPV
Sequence of P-gp (ABCB1) (P08183 whole entry): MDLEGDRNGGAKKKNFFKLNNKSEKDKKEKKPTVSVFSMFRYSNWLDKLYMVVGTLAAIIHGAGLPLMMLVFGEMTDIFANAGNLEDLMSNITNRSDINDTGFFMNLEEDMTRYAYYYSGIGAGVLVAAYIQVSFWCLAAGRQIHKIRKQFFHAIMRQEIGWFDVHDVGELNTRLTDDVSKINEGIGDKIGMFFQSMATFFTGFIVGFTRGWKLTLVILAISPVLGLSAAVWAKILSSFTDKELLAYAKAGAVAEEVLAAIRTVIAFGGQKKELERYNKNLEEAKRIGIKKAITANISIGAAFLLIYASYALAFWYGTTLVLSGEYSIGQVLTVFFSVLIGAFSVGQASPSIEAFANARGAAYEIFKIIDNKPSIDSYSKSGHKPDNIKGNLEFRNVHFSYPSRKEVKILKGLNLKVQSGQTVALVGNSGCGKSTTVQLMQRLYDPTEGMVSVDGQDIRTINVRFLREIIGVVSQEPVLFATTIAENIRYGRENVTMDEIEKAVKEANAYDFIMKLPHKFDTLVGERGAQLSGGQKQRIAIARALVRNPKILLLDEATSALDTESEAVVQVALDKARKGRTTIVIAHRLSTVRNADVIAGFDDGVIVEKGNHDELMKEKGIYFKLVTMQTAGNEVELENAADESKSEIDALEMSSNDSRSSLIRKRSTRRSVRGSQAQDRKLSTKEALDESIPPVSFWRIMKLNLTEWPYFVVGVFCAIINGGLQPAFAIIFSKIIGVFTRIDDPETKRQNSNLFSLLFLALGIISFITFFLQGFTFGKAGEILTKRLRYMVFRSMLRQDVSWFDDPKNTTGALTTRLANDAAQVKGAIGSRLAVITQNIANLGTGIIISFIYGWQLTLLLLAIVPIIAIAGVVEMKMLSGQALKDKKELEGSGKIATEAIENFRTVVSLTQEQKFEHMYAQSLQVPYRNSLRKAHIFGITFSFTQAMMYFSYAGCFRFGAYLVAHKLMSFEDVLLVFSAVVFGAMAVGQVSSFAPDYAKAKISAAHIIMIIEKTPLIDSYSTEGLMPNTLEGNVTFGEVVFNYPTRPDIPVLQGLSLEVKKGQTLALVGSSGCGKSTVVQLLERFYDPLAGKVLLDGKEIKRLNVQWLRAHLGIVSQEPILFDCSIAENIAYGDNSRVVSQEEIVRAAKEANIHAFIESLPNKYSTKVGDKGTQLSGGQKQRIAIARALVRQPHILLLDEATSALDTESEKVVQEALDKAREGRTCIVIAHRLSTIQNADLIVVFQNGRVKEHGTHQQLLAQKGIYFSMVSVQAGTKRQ

Cc1cc(C)c2c(C)c(C(=O)NCc3ccc(S(C)(=O)=O)cc3)sc2n1
pEC50 [1]: 5.19 | Emax [2]: 58% | fraction unbound [3]: < 0.005 | inhibition (INH) [4]: Active

Cc1nnc2sc3c(NCc4ccc(S(C)(=O)=O)c(F)c4)nn(C)c3c2c1C
pEC50 [1]: 6.80 | Emax [2]: 58% | efflux ratio [5]: > 10 | Fu [3]: 0.05 | INH [4]: > 30 µM

Cc1nnc2sc(C(=O)NC3COC3)c(C3CC3)c2c1C
pEC50 [1]: < 5.00 | Emax [2]: 38% | fraction unbound [3]: < 0.005 | inhibition (INH) [4]: Active

Cc1nc2sc3c(NCc4ccc(F)cc4)nn(C)c3c2c(C)c1Cl
pEC50 [1]: < 5.00 | Emax [2]: 56%

COc1ccc(CNc2nn(C)c3c2sc2nc(C)c(Cl)c(C)c23)cc1
pEC50 [1]: < 5.00 | Emax [2]: 51%

Cc1cc(C)c2c(n1)sc1c(NCc3ccco3)n[nH]c12
pEC50 [1]: 5.92 | Emax [2]: 76%

Cc1nc2sc3c(NCc4ccccc4)nn(C)c3c2c(C)c1Cl
pEC50 [1]: < 5.00 | Emax [2]: 39%

COc1ccc(CNC(=O)c2cc3c(C)c(C)nnc3s2)cc1F
pEC50 [1]: 5.82 | Emax [2]: 66% | fraction unbound [3]: < 0.005 | inhibition (INH) [4]: Active

COc1ccc(CNC(=O)c2sc3nnc(C)c(C)c3c2C)cc1F
pEC50 [1]: 5.68 | Emax [2]: 56% | fraction unbound [3]: < 0.005 | inhibition (INH) [4]: Active

Cc1cc(C)c2c(C)c(C(=O)NCc3ccc4c(c3)OCCO4)sc2n1
pEC50 [1]: 5.68 | Emax [2]: 56% | fraction unbound [3]: < 0.005 | inhibition (INH) [4]: Active

COc1ccc(CNc2n[nH]c3c2sc2nc(C)cc(C)c23)cc1
pEC50 [1]: 5.66 | Emax [2]: 67% | Fu [3]: < 0.002 | INH [4]: < 5 µM

Cc1nnc2sc3c(NCC4CC4)nn(C)c3c2c1C
pEC50 [1]: 6.21 | Emax [2]: 84%

COc1ccc(CNC(=O)c2sc3nc(C)cc(C)c3c2C)cc1
pEC50 [1]: 5.57 | Emax [2]: 49% | fraction unbound [3]: < 0.005 | inhibition (INH) [4]: Active

Cc1cc(C)c2c(n1)sc1c(NCc3ccccc3)n[nH]c12
pEC50 [1]: 6.00 | Emax [2]: 66%

CCc1c(C(=O)NCc2ccc(S(C)(=O)=O)cc2)sc2nc(C)cc(C)c12
pEC50 [1]: 5.57 | Emax [2]: 57% | fraction unbound [3]: < 0.005 | inhibition (INH) [4]: Active

COc1ccc(CNC(=O)c2sc3nnc(C)c(C)c3c2C2CC2)cc1F
pEC50 [1]: 5.25 | Emax [2]: 35% | fraction unbound [3]: < 0.005 | inhibition (INH) [4]: Active

COc1ccc(CNC(=O)c2cc3c(C)cc(C)nc3s2)cc1
pEC50 [1]: 5.29 | Emax [2]: 53% | fraction unbound [3]: < 0.005 | inhibition (INH) [4]: Active

Cc1nnc2sc3c(NCC4CCCO4)nn(C)c3c2c1C (stereo unspecified)
pEC50 [1]: 6.74 | Emax [2]: 102%

COc1ccc(CNc2nn(C)c3c2sc2nnc(C)c(C)c23)cc1
pEC50 [1]: 7.40 | Emax [2]: 79% | Fu [3]: 0.02 | INH [4]: > 30 µM | Kp [6]: 0.25

CSc1ccc(CNC(=O)c2sc3nc(C)cc(C)c3c2C)cc1
pEC50 [1]: 5.82 | Emax [2]: 45% | fraction unbound [3]: < 0.005 | inhibition (INH) [4]: Active

Cc1nc2sc3c(NCc4ccco4)nn(C)c3c2c(C)c1Cl
pEC50 [1]: 6.92 | Emax [2]: 59% | Fu [3]: < 0.001 | pIC50 [7]: 6.00 | pIC50 [8]: > 7.00

CCc1c(C(=O)NCc2ccc(OC)c(F)c2)sc2nnc(C)c(C)c12
pEC50 [1]: 5.66 | Emax [2]: 73% | fraction unbound [3]: < 0.005 | inhibition (INH) [4]: Active

Cc1cc(C)c2c(n1)sc1c(NCc3ccc(F)cc3)n[nH]c12
pEC50 [1]: 5.96 | Emax [2]: 62%

COc1ccc(CNC(=O)c2sc3nnc(C)c(C)c3c2N)cc1F
Emax [2]: 75%

Cc1cc(C)c2c(n1)sc1c(NCC3CCCC3)n[nH]c12
pEC50 [1]: 5.42 | Emax [2]: 65%

Cc1nnc2sc3c(NCc4ccc5c(c4)OCCO5)nn(C)c3c2c1C
pEC50 [1]: 7.22 | Emax [2]: 91%

Cc1nnc2sc3c(NCc4ccco4)nn(C)c3c2c1C
pEC50 [1]: 6.16 | Emax [2]: 91%

Cc1cc(C)c2c(C)c(C(=O)NCc3ccc(OC(F)(F)F)cc3)sc2n1
pEC50 [1]: < 5.00 | Emax [2]: 29% | fraction unbound [3]: < 0.005 | inhibition (INH) [4]: Active

Cc1cc(C)c2c(n1)sc1c(NCC3CC3)n[nH]c12
pEC50 [1]: 5.70 | Emax [2]: 67%

Cc1cc(C)c2c(C)c(C(=O)NCc3ccc4c(c3)CCO4)sc2n1
pEC50 [1]: 5.23 | Emax [2]: 50% | fraction unbound [3]: < 0.005 | inhibition (INH) [4]: Active

Cc1nc2sc3c(NCC4CC4)nn(C)c3c2c(C)c1Cl
pEC50 [1]: 6.64 | Emax [2]: 67% | Fu [3]: < 0.001 | pIC50 [7]: 6.00 | pIC50 [8]: > 7.00
